Like-named read-outs stand apart in the source and are kept apart here.
How the values were obtained:
[1] = target: T1, interaction of ICAM-1 with the Leukointegrin CD18/CD11a (LFA-1) (Homo sapiens, UniProt P05107+P20701); test: Assay to determine inhibition of LFA-1 binding to ICAM-1 (immunopurified LFA-1 on plate-bound sICAM-1, ELISA readout)
T1 construct: endogenous in cells; sICAM-1: made in house, secreted from transfected CHO DUX cells
From the text: Assay to Determine Inhibition of LFA-1 Binding to ICAM-1 Purpose of Assay: This assay protocol is designed to study the direct antagonism, by a test compound, of the interaction of the CAM, ICAM-1 with the Leukointegrin CD18/CD11a (LFA-1). […] After collection and neutralization of fractions from the TS2/4 column, samples are pooled and precleared with Protein G agarose. […] Wells are washed 3 times with Diluting Buffer. The bound LFA-1 is detected by the addition of a polyclonal antibody directed against a peptide corresponding to the CD18 cytoplasmic tail in a 1:100 dilution with Diluting Buffer and 1% BSA and allowed to incubate for 45 min at 37° C. Wells are washed 3 times with Diluting Buffer and the bound polyclonal antibody is detected by the addition of a 1:4000 dilution of horse radish peroxidase conjugated to goat immunoglobulin directed against rabbit immunoglobulin. […] The lack of the addition of LFA-1 to the binding assay is used as a background control for all samples. A dose-response curve is obtained for all test compounds. Results of these tests are reported as Kd's in μM.

[2] = system: cell bound form of LFA-1 (CD18, CD11a) with ICAM-1, SKW3 cells; test: Inhibition of SKW3 cell binding to ICAM-1 (PMA-stimulated); format: cell-based, human; conditions: Homo sapiens, read-out: Assay to Detect SKW3 Cells Binding to ICAM IC50
How it was run: (§1)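 Plates coated with sICAM-1 (40 μg/mL) or fibronectin (100 μg/mL) for 1 h; SKW3 cells in RPMI/15% FBS activated with PMA (50 μg/mL final) added with compound, 2 h at 37° C. Unbound cells washed off; value is concentration (μM) giving 50% binding inhibition.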

[3] = system: cell bound fibronectin receptor (VLA4) with fibronectin, SKW3 cells; test: Inhibition of SKW3 cell binding to fibronectin (selectivity counter-assay); format: cell-based, human; conditions: for IC50: Homo sapiens, read-out: Assay to Detect SKW3 Cells Binding to FIBRONECTIN IC50
How it was run: as §1

[4] = system: LFA-1 dependent aggregation of JY cells; test: JY cell homotypic aggregation assay (PMA-stimulated); format: cell-based, human
From the text: This aggregation can be enhanced by the addition of phorbol esters. […] Thus, the extent of LFA-1-dependent binding may be determined by assessing the extent of spontaneous or phorbol ester-dependent aggregate formation.
An agent which interferes with LFA-1 -dependent aggregation can be identified through the use of an assay capable of determining whether the agent interferes with either spontaneous, or phorbol ester-dependent aggregation of Epstein-Barr virus transformed cells. It is preferable to employ cells of the JY cell line (Terhost, L; et aL, Proc. Natl. Acad. Sci. USA, 1976, 73, 910) for the homotypic aggregation assay. This assay, capable of measuring LFA-1 dependent aggregation, may be employed to identify agents which act as antagonists to the LFA-1 dependent aggregation. Such agents may act by impairing the ability of either LFA-1 or ICAM-1 to mediate aggregation. Thus, agents may be examined to directly determine if they are antagonists of LFA-1 aggregation.
Description of Assay Protocol:
JY cells are cultured in RPMI 1640 culture medium supplemented with 10% fetal calf serum and 50 μg/mL gentamycin. The cells are cultured at 37° C. in an atmosphere of 5% CO2 at a relative humidity of 95%. JY cells used in this assay are washed two times with RPMI 1640 medium containing 5 mM HEPES buffer and resuspended to a concentration of 2·10^6 cells/mL. Added to flat-bottomed, 96-well microtiter plates are 50 μL of test compound diluted in complete medium, 50 μL of complete medium with or without purified monoclonal antibodies (negative and positive controls for inhibition, respectively), 50 μL of complete medium containing 200 ng/mL of the phorbol ester phorbol myristate acetate (PMA) and 100 μL of cells at a concentration of 2·10^6 cells/mL in complete medium. This yields a final concentration of […] PMA and 2·10^5 cells/well. Cells are allowed to settle spontaneously, and the degree of aggregation is scored at various time points. […] This procedure has been described by Rothlein, R. R.; et al., J. Exp. Med. 1986, 163, 1132-1149. This paper also reported that antibody to LFA-1 is capable of inhibiting the formation of aggregates.
Data are reported as the concentration or concentration range (in μM) at which 50% of binding is inhibited.

[5] = values marked e approximated from incomplete dose-response curve
[6] = SKW3, values marked c: no inhibition observed up to highest dose
[7] = values marked c: no inhibition observed up to highest dose
[8] = No inh = no inhibition observed up to highest dose, exact quantification not always possible due to intrinsic toxicity
[9] = SKW3, No inh = no inhibition observed up to highest dose, exact quantification not always possible due to intrinsic toxicity

T1 sequence (P20701 26-1170): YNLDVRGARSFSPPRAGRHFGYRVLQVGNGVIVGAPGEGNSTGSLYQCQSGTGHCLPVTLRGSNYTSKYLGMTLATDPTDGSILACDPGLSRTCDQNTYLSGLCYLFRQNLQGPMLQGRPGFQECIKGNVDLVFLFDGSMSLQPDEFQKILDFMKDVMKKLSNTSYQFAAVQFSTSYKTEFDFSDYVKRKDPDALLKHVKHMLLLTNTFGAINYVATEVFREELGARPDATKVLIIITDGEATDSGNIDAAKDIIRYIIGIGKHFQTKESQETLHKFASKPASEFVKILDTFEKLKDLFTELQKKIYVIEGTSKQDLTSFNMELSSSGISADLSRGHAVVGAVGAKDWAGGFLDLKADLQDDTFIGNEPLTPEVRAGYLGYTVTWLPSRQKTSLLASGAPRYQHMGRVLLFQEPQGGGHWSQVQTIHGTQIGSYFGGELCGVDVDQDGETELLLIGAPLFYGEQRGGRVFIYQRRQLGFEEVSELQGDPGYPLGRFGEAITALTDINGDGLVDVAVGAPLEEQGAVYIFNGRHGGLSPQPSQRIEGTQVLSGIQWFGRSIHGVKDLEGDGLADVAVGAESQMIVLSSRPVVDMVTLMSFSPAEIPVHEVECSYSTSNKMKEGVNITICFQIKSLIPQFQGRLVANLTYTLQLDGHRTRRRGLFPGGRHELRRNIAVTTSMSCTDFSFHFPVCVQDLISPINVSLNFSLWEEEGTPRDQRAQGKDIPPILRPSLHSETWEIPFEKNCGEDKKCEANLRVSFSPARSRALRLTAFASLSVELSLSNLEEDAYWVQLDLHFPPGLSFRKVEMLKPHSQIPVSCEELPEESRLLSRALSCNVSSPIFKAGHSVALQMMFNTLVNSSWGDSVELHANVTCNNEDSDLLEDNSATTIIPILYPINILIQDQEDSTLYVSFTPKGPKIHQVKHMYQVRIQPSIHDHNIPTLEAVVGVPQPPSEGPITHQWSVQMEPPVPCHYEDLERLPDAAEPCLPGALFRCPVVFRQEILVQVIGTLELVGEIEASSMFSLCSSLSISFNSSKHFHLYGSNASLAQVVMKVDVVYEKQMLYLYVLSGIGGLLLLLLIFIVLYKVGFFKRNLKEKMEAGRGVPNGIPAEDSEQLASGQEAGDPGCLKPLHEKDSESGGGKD
T1 sequence (P05107 23-769): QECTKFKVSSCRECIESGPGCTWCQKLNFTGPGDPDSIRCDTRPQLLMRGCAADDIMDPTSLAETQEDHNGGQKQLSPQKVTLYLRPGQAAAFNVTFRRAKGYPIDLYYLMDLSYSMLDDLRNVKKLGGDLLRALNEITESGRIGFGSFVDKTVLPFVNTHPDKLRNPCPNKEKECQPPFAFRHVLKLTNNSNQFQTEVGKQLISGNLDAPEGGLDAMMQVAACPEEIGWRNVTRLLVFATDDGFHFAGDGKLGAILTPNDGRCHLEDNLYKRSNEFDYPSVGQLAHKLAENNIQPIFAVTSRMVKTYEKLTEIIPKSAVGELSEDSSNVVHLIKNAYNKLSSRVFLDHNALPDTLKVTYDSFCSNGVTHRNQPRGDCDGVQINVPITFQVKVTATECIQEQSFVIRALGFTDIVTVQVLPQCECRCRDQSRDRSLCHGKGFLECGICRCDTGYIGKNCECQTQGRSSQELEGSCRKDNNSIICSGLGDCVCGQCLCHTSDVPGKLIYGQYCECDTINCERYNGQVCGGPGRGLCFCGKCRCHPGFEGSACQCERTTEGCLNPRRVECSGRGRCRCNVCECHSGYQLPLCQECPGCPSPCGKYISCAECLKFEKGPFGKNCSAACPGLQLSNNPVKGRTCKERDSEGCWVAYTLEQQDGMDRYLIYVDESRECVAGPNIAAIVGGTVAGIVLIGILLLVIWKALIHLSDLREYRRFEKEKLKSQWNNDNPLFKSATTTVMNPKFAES

| Compound | Cellular Toxicity Assay MTT LD50 (SKW3 cells) | Kd [1, 5] | IC50 [2, 6] | Assay to Detect SKW3 Cells Binding to FIBRONECTIN IC50 [3, 7] | IC50 ([4]; Homo sapiens) | IC50 [4] | Kd [1] | IC50 ([2]; SKW3) | Assay to Detect SKW3 Cells Binding to FIBRONECTIN IC50 [3, 8] | IC50 [3, 9] | IC50 [3, 6] |
| --- | --- | --- | --- | --- | --- | --- | --- | --- | --- | --- | --- |
| CN1C(=O)N(c2cc(Cl)c(F)c(Cl)c2)C(=O)[C@@]1(C)Cc1ccc(Br)cc1 [Example 124] | 100 to 200 µM | 30 nM | 1500 nM | No inh^c | 100 nM | – | – | – | – | – | – |
| Cc1cc(Br)cc(C)c1C[C@]1(C)C(=O)N(c2cc(Cl)cc(Cl)c2)C(=O)N1C [Example 122] | 200 to 400 µM | 130 nM | 12000 to 25000 nM | No inh^c | 1800 nM | – | – | – | – | – | – |
| C[C@]1(Cc2ccc(C(=O)c3ccccc3)cc2)NC(=O)N(c2cc(Cl)cc(Cl)c2)C1=O [Example 184] | 50 to 100 µM | 370 nM | 800 to 1500 nM | No inh^c | – | 300 nM | – | – | – | – | – |
| C[C@@]1(Cc2ccc(Br)cc2)C(=O)N(c2cc(Cl)cc(Cl)c2)C(=O)N1C1CCN(CC(=O)O)CC1 [Example 237] | 50 to 100 µM | – | – | – | 100 nM | – | 130 nM | 1000 to 2000 nM | No inh^c | – | – |
| CN1C(=O)N(c2cc(Cl)c(Cl)c(Cl)c2)C(=O)C1(C)Cc1ccc(Br)cc1 (stereo not drawn) [Example 159] | 50 to 100 µM | 110 nM | 10000 to 20000 nM | No inh^c | 2000 nM | – | – | – | – | – | – |
| CC(=O)N1C(=O)N(c2cc(Cl)cc(Cl)c2)C(=O)[C@@]1(C)Cc1ccc(C#N)cc1 [Example 128] | 125 to 250 µM | 160 nM | 1500 nM | No inh^c | 100 nM | – | – | – | – | – | – |
| C[C@@]1(Cc2ccc(Br)cc2)C(=O)N(c2cc(Cl)cc(Cl)c2)C(=O)N1CCCCCCl [Example 121] | <11 µM | 210 nM | 800 to 2000 nM | No inh^c | 25000 nM | – | – | – | – | – | – |
| C[C@@]1(Cc2ccc(Br)cc2)C(=O)N(c2cc(Cl)cc(Cl)c2)C(=O)N1Cc1ccc(C(=N)N)cc1 [Example 242] | 16 to 32 µM | – | – | – | 2800 nM | – | 400 nM | 10000 to 25000 nM | No inh^c | – | – |
| C[C@]1(Cc2ccccc2)NC(=O)N(c2cc(Cl)cc(Cl)c2)C1=O [Example 265] | 130 to 250 µM | – | – | – | 3000 nM | – | 280 nM | 19000 to 38000 nM | – | > 75000 nM | – |
| CN1C(=O)N(c2cc(Cl)cc(Cl)c2)C(=O)[C@@]1(C)Cc1ccccc1 [Example 266] | >500 µM | – | – | – | 3000 nM | – | 140 nM | 25000 to 50000 nM | – | > 50000 nM | – |
| CC(=O)N1C(=O)N(c2cc(Cl)cc(Cl)c2)C(=O)[C@@]1(C)Cc1ccc([N+](=O)[O-])cc1 [Example 135] | >400 µM | 200 nM | 25000 nM | No inh^c | 1700 nM | – | – | – | – | – | – |
| C[C@]1(Cc2ccc(Br)cc2)NC(=O)N(c2cc(C(F)(F)F)cc(C(F)(F)F)c2)C1=O [Example 35] | 38 to 46 µM | 100 nM | 5000 to 10000 nM | No inh^c | 800 nM | – | – | – | – | – | – |
| O=C1N[C@H](Cc2ccccc2)C(=O)N1c1cc(Cl)cc(Cl)c1 [Example 15] | 125 to 250 µM | 2300 nM | 31000 to 63000 nM | No Inh^c | 25000 to 50000 nM | – | – | – | – | – | – |
| C[C@]1(Cc2ccc(Br)cc2)NC(=O)N(c2cc(Cl)c(Cl)c(Cl)c2)C1=O [Example 43] | 25 to 50 µM | 170 nM | 3000 to 6000 nM | No inh^c | 1800 nM | – | – | – | – | – | – |
| CC1(Cc2ccccc2)NC(=O)N(c2cc(Cl)cc(Cl)c2)C1=O (stereo not drawn) [Example 18] | 125 to 250 µM | 760 nM | 32000 to 63000 nM | – | 6000 nM | – | – | – | – | – | > 125000 nM |
| CCN1C(=O)N(c2cc(Cl)cc(Cl)c2)C(=O)[C@@]1(C)Cc1ccc(Br)cc1 [Example 97] | >350 µM | 23 nM | 5000 to 10000 nM | No inh^c | 2000 nM | – | – | – | – | – | – |
| CN1C(=O)N(c2cc(Cl)cc(Cl)c2)C(=O)[C@@]1(C)Cc1ccc([N+](=O)[O-])cc1 [Example 134] | >250 µM | 50 nM | 1500 nM | No inh^c | 100 nM | – | – | – | – | – | – |
| CC(=O)CN1C(=O)N(c2cc(Cl)cc(Cl)c2)C(=O)[C@@]1(C)Cc1ccc(Br)cc1 [Example 117] | 12 µM | 1090 nM | 12000 nM | – | 2200 nM | – | – | – | – | – | 12000 nM |
| CN1C(=O)N(c2cc(Cl)cc(Cl)c2)C(=O)[C@@]1(C)Cc1ccc(-c2cccnc2)cc1 [Example 188] | 56 to 112 µM | 40 nM | 300 to 1000 nM | No inh^c | 30 nM | – | – | – | – | – | – |
| CC(C)N1C(=O)N(c2cc(Cl)cc(Cl)c2)C(=O)C1Cc1ccc(Br)cc1 (stereo not drawn) [Example 34] | 200 to 400 µM | 130 nM | 6000 nM | No inh^c | 1800 nM | – | – | – | – | – | – |
| CC(C)N1C(=O)N(c2cc(Cl)cc(Cl)c2)C(=O)C1Cc1ccccc1 (stereo not drawn) [Example 10] | >500 µM | 190 nM | 50000 nM | No inh^c | 6300 nM | – | – | – | – | – | – |
| C[C@@]1(Cc2ccc(Br)cc2)C(=O)N(c2cc(Cl)cc(Cl)c2)C(=O)N1Cc1cccnc1 [Example 111] | 36 µM | 190 nM | 3000 nM | No inh^c | 75000 nM | – | – | – | – | – | – |
| CC1(Cc2ccc(Br)cc2)OC(=O)N(c2cc(Cl)cc(Cl)c2)C1=O (stereo not drawn) [Example 180] | 200 to 400 µM | 190 nM | 1500 to 3000 nM | No inh^c | 1300 nM | – | – | – | – | – | – |
| C[C@@]1(Cc2ccc(Br)cc2)C(=O)N(c2cc(Cl)cc(Cl)c2)C(=O)N1Cc1cccc(C(=N)N)c1 [Example 243] | 10 to 20 µM | – | – | – | 3100 nM | – | 110 nM | 5000 to 6000 nM | No inh^c | – | – |
| CCC1(Cc2ccccc2)C(=O)N(c2cc(Cl)cc(Cl)c2)C(=O)N1C (stereo not drawn) [Example 93] | 100 to 200 µM | 1270 nM | > 100000 nM | No inh^c | 13000 nM | – | – | – | – | – | – |
| CN1C(=O)N(c2cc(Cl)cc(Cl)c2)C(=O)C1(C)Cc1ccc(C(F)(F)F)cc1 (stereo not drawn) [Example 171] | 100 to 200 µM | 180 nM | 102000 nM | No inh^c | 200 nM | – | – | – | – | – | – |
| CN1CCC(N2C(=O)N(c3cc(Cl)cc(Cl)c3)C(=O)[C@@]2(C)Cc2ccc(Br)cc2)CC1 [Example 37] | <13 µM | 160 nM | 5000 to 10000 nM | – | 1600 nM | – | – | – | – | – | > 19000 nM |

From USRE38132E1, “Phenylpyrrolidines, phenylimidazolidines,3-phenyl-1,3-oxizolidines and 3-phenyl-1,3-thiazolidines and their use in the treatment of inflammatory disease” (Boehringer Ingelheim Pharmaceuticals, Inc., priority 1997, dated 2003)
